Measured values published in patent US7709497B2, “Pyrazolo[3,4-b]pyridine compound, and its use as a PDE4 inhibitor” (Glaxo Group Limited, priority 2004, dated 2010).

Legend:
PDE5 (human recombinant) = PDE5 (human recombinant) (Homo sapiens, UniProt O76074); assay: PDE5 inhibition (SPA or modified FP assay); assay type: biochemical; details: n = 1; accuracy ±about 0.5 log unit; read-out: PDE5 pIC50 (converted)
Text: Human recombinant PDE5 is disclosed in K. Loughney et al., “Isolation and characterisation of cDNAs encoding PDE5A, a human cGMP-binding, cGMP-specific 3′,5′-cyclic nucleotide phosphodiesterase”, Gene, 1998, 216, 139-147.
The ability of compounds to inhibit catalytic activity at PDE4B or 4D (human recombinant), PDE3 (from bovine aorta), PDE5 (human recombinant) or PDE6 (from bovine retina) can optionally be determined by Scintillation Proximity Assay (SPA) in a 96-well format.
Test compounds (as a solution in DMSO, preferably about 2 microliters (ul) volume of DMSO solution) are preincubated at ambient temperature (room temperature, e.g. 19-23° C.) in Wallac Isoplates (code 1450-514) with PDE enzyme in 50 mM Tris-HCl buffer pH 7.5, 8.3 mM MgCl2, 1.7 mM EGTA, 0.05% (w/v) bovine serum albumin for 10-30 minutes (usually 30 minutes). The enzyme concentration is adjusted so that no more than 20% hydrolysis of the substrate defined below occurs in control wells without compound, during the incubation. […] Bound radioactive product is measured using a WALLAC TRILUX 1450 Microbeta scintillation counter. […] Curves are analysed using ActivityBase and XLfit (ID Business Solutions Limited, 2 Ocean Court, Surrey Research Park, Guildford, Surrey GU2 7QB, United Kingdom) Results are expressed as pIC50 values. […]

[1] = test system: Dinitrofluorobenzene (DNFB)-induced delayed type hypersensitivity (DTH) response in pigs; assay: Pig model of atopic dermatitis: DNFB-induced DTH response, skin topical administration; assay type: in vivo
Text: The pig DTH (delayed type hypersensitivity) model of contact hypersensitivity utilizes the Th2-mediated inflammatory response in pig skin to mimic the pathology of atopic dermatitis in humans. The model measures the potential anti-inflammatory effect of compounds, topically-applied to the skin, on the acute DTH (delayed type hypersensitivity) response in castrated male Yorkshire pigs.
In general in the assay, pigs (domestic Yorkshire pigs, 15-18 kg at time of sensitization, castrated males) are first sensitized by topical application of ca. 10% (w/v) dinitrofluorobenzene (DNFB) dissolved in DMSO:acetone:olive oil (ca. 1:5:3) (ca. 40 mg DNFB, 400 microlitre solution total) to the ears (outer) and groin (inner). The pigs are then challenged 12 days later with ca. 0.6% (w/v) DNFB applied to randomized sites on the shaved back of the pigs (ca. 90 micrograms/site; sites are identified and numbered by grid made with marking pen).
On the day of challenge, the treatments are performed at about 2 hours prior to and about 6 hours after challenge (for DMSO/acetone solutions/suspensions, to maximize exposure to drug), or at about 30 minutes after and about 6 hours after challenge (for topical ointments or creams, representing a more clinically relevant treatment protocol).
One day (about 24 hrs) after challenge, and optionally again at ca. 48 hrs post challenge, test sites are visually evaluated for intensity and extent of erythema by measuring the diameter of the reaction at its widest point and assigning scores of 0 to 4 for each of erythema intensity and erythema extent. Induration (a measure of swelling) is also scored 0 to 4. Scores for erythema intensity, erythema extent and induration are assigned according to the following criteria: Intensity of Erythema: 0=normal, 1=minimal, barely visible, 2=mild, 3=moderate, 4=severe. Extent of Erythema (not raised): 0=no edema, 1=macules of pin head size, 2=lentil sized macules, 3=confluent macules, 4=diffuse over entire site. Induration (palpable): 0=normal, 1=nodules of pin head size, 2=doughy lentil sized nodules, 3=confluent firm nodules, 4=diffuse hard lesion. The summed visual score at ca. 24 hours includes the individual scores for erythema intensity, erythema extent, and induration; so the maximal summed score for each site would be 12. High summed scores can generally indicate a high inflammatory response. Visual scores are subject to some inaccuracy/error.
Differences in the summed score between adjacent control (placebo) and treatment sites on the grids are calculated. This difference value is then used to determine the percent inhibition compared to the summed score for the control (placebo) sites. The more negative the difference value, the greater the calculated inhibition. Percent inhibition of (percent inhibition compared to) the mean summed score can be calculated.
About 24 hours after challenge, treatment sites can optionally also be visually evaluated for lesion area.
The anti-inflammatory effect of the compound of formula (I) (“free base” form), applied topically to the skin, on the acute DTH response in castrated male Yorkshire pigs is compared to that of another PDE4 inhibitor cipamfylline (BRL-61063) and the topical immunomodulator pimecrolimus.
In the above assay, the compound of formula (I) is topically administered: either (A) at ca. 2.5% (w/v) concentration in a solution of ca. 10% DMSO/90% acetone (ca. 50 microliters or ca. 1.5 mg/site) at about 2 hours prior to and about 6 hours after the DNFB challenge; or (B) at ca. 0.5% (w/w) concentration in an ointment containing propylene glycol (PG)*(ca. 25 mg of formulation/site) at about 30 minutes after and about 6 hours after the DNFB challenge. […]

IC50 (PDE5 (human recombinant)): 490 nM
SMILES: CCn1ncc2c(NC3CCN(C(N)=O)CC3)c(C(=O)NCc3ccc(C)c(C)c3)cnc21 [compound of formula (I), 4-{[1-(aminocarbonyl)-4-piperidinyl]amino}-N-[(3,4-dimethylphenyl)methyl]-1-ethyl-1H-pyrazolo[3,4-b]pyridine-5-carboxamide]
inhibition of mean summed score (erythema intensity, erythema extent, induration) ([1]; ca. 0.5% (w/w) in PG ointment, vs placebo PG ointment, ca. 24 h after challenge, p<0.05 by ANOVA): 13-14%
reduction in mean summed score ([1]; ca. 2.5% (w/v) in DMSO/acetone solution, vs vehicle alone, ca. 24 h after challenge): about 21%
lesion area ([1]; skin administration in DMSO/acetone or PG ointment, subject to some inaccuracy/error): decrease the lesion area
